In PubChem BioAssay AID248 (DTP/NCI, 2004):
Values joined by “and” are separate entries in the source; they are usually repeats but may differ in a detail not shown here. Equal values may be shown once. Inconclusive results and toxic doses are left out. No stated cut-off is given here; in the data, active means T/C of 150% or more; inactive means T/C below 125%.

System: L1210 leukemia ip in BDF1 mice, survival T/C
Experiment: NCI In Vivo Anticancer Drug Screen. Data for tumor model L1210 Leukemia (intraperitoneal) in B6D2F1 (BDF1) mice
Details: endpoint: mean survival time, higher = longer survival
In short: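 Tumor was transplanted into mice, which were then dosed with test compound or vehicle alone. Survival was recorded for each group, and the treated figure was expressed relative to the control figure.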

[1] = dose: 100.0 mg/kg/injection, schedule: Q04DX003 (ip), vehicle: saline
[2] = dose: 200.0 mg/kg/injection, schedule: Q04DX003 (ip), vehicle: saline
[3] = dose: 100.0 mg/kg/injection, schedule: Q04DX003 (ip), vehicle: saline with Tween-80
[4] = dose: 200.0 mg/kg/injection, schedule: Q04DX003 (ip), vehicle: saline with Tween-80
[5] = dose: 100.0 mg/kg/injection, schedule: Q01DX001 (ip), vehicle: saline
[6] = dose: 100.0 mg/kg/injection, schedule: Q04DX002 (ip), vehicle: saline with Tween-80
[7] = dose: 200.0 mg/kg/injection, schedule: Q04DX002 (ip), vehicle: saline with Tween-80
[8] = dose: 400.0 mg/kg/injection, schedule: Q04DX002 (ip), vehicle: saline with Tween-80
[9] = dose: 100.0 mg/kg/injection, schedule: Q01DX009 (ip), vehicle: saline with Tween-80
[10] = dose: 200.0 mg/kg/injection, schedule: Q01DX009 (ip), vehicle: saline with Tween-80
[11] = dose: 400.0 mg/kg/injection, schedule: Q01DX009 (ip), vehicle: saline with Tween-80

Measured: T/C

O=c1c2cc([N+](=O)[O-])ccc2[nH]c2c1ccc1ccccc12
inactive: [1] 92 % of control | [2] 92 % of control | dose: 400.0 mg/kg/injection, schedule: Q04DX003 (ip), vehicle: saline 90 % of control

Brc1ccc(/C(=N/Nc2ccccc2)Oc2ccccc2)cc1
inactive: [3] 94 % of control | [4] 94 % of control | dose: 400.0 mg/kg/injection, schedule: Q04DX003 (ip), vehicle: saline with Tween-80 102 % of control

CC(NC(=O)OCc1ccccc1)C(=O)NC1C(CO)OC(n2cnc3c(N)ncnc32)C1O (configuration not stated)
inactive: [5] 94 % of control | dose: 200.0 mg/kg/injection, schedule: Q01DX001 (ip), vehicle: saline 103 % of control | dose: 400.0 mg/kg/injection, schedule: Q01DX001 (ip), vehicle: saline 100 % of control

CC(=O)OC1CCC(OC(C)=O)C(C#N)(C#N)C1(C#N)C#N (configuration not stated)
inactive: [3] 104 % of control | [4] 93 % of control

O=C(O)c1ccc(Br)o1
inactive: [6] 104 % of control | [7] 97 % of control | [8] 95 % of control

COC1OC(COC(=O)c2ccccc2)C(OC(=O)c2ccccc2)C(OC(=O)c2ccccc2)C1OC(=O)c1ccccc1 (configuration not stated)
inactive: [9] 116 % of control | [10] 107 % of control | [11] 107 % of control

COC1C=CC2C3Cc4ccc(O)c5c4C2(CCN3C)C1O5 (configuration not stated)
inactive: dose: 75.0 mg/kg/injection, schedule: Q01DX001 (ip), vehicle: saline 104 % of control | dose: 150.0 mg/kg/injection, schedule: Q01DX001 (ip), vehicle: saline 103 % of control

COc1ccc(Cl)cc1NC(=O)Nc1cc(C)ccc1N=Nc1ccc(C)cc1
inactive: dose: 100.0 mg/kg/injection, schedule: Q01DX001 (ip), vehicle: saline with Tween-80 96 % of control and 91 % of control | [9] 88 % of control | [6] 87 % of control | dose: 200.0 mg/kg/injection, schedule: Q01DX001 (ip), vehicle: saline with Tween-80 96 % of control | [10] 94 % of control and 91 % of control | [7] 92 % of control | dose: 400.0 mg/kg/injection, schedule: Q01DX001 (ip), vehicle: saline with Tween-80 96 % of control and 88 % of control | [11] 94 % of control | [8] 92 % of control

O=c1[nH]nnc2nc[nH]c12
inactive: dose: 25.0 mg/kg/injection, schedule: Q01DX001 (ip), vehicle: steriod suspending solution 109 % of control | dose: 46.1 mg/kg/injection, schedule: Q01DX001 (ip), vehicle: steriod suspending solution 100 % of control | dose: 50.0 mg/kg/injection, schedule: Q01DX001 (ip), vehicle: steriod suspending solution 113 % of control | dose: 65.9 mg/kg/injection, schedule: Q01DX001 (ip), vehicle: steriod suspending solution 100 % of control | dose: 94.2 mg/kg/injection, schedule: Q01DX001 (ip), vehicle: steriod suspending solution 102 % of control | dose: 100.0 mg/kg/injection, schedule: Q01DX001 (ip), vehicle: steriod suspending solution 109 % of control | dose: 134.5 mg/kg/injection, schedule: Q01DX001 (ip), vehicle: steriod suspending solution 97 % of control | dose: 192.1 mg/kg/injection, schedule: Q01DX001 (ip), vehicle: steriod suspending solution 101 % of control | dose: 200.0 mg/kg/injection, schedule: Q01DX001 (ip), vehicle: steriod suspending solution 100 % of control | dose: 274.4 mg/kg/injection, schedule: Q01DX001 (ip), vehicle: steriod suspending solution 103 % of control | dose: 392.0 mg/kg/injection, schedule: Q01DX001 (ip), vehicle: steriod suspending solution 108 % of control | dose: 400.0 mg/kg/injection, schedule: Q01DX001 (ip), vehicle: steriod suspending solution 105 % of control | dose: 560.0 mg/kg/injection, schedule: Q01DX001 (ip), vehicle: steriod suspending solution 95 % of control | dose: 800.0 mg/kg/injection, schedule: Q01DX001 (ip), vehicle: steriod suspending solution 96 % of control

O=[N+]([O-])c1ccc(/C=N\Nc2ccccn2)s1
inactive: [3] 93 % of control | [4] 93 % of control

CCOC(=O)/C(N=O)=C(/O)c1ccncc1
inactive: dose: 100.0 mg/kg/injection, schedule: Q04DX003 (ip), vehicle: Klucel (hydroxypropylcellulose) (HPC) 96 % of control | dose: 200.0 mg/kg/injection, schedule: Q04DX003 (ip), vehicle: Klucel (hydroxypropylcellulose) (HPC) 102 % of control

CCCCCCCCNCCCCCCCC
inactive: dose: 4.62 mg/kg/injection, schedule: Q01DX009 (ip), vehicle: gum acacia 101 % of control | dose: 5.0 mg/kg/injection, schedule: Q01DX001 (ip), vehicle: other 95 % of control | dose: 9.25 mg/kg/injection, schedule: Q01DX009 (ip), vehicle: gum acacia 94 % of control | dose: 10.0 mg/kg/injection, schedule: Q01DX001 (ip), vehicle: other 95 % of control | dose: 18.5 mg/kg/injection, schedule: Q01DX009 (ip), vehicle: gum acacia 95 % of control | dose: 20.0 mg/kg/injection, schedule: Q01DX001 (ip), vehicle: other 90 % of control | dose: 37.0 mg/kg/injection, schedule: Q01DX009 (ip), vehicle: gum acacia 97 % of control | dose: 40.0 mg/kg/injection, schedule: Q01DX001 (ip), vehicle: other 93 % of control | dose: 80.0 mg/kg/injection, schedule: Q01DX001 (ip), vehicle: other 90 % of control | dose: 100.0 mg/kg/injection, schedule: Q01DX001 (ip), vehicle: other 100 % of control

Nc1cc2c(cc1I)-c1ccc(Br)cc1C2
inactive: dose: 100.0 mg/kg/injection, schedule: Q01DX001 (ip), vehicle: carboxymethylcellulose (CMC) 102 % of control | dose: 200.0 mg/kg/injection, schedule: Q01DX001 (ip), vehicle: carboxymethylcellulose (CMC) 107 % of control | dose: 400.0 mg/kg/injection, schedule: Q01DX001 (ip), vehicle: carboxymethylcellulose (CMC) 98 % of control

O=C(Nc1cccc2ccccc12)c1ccc(Cl)cc1Cl
inactive: dose: 100.0 mg/kg/injection, schedule: Q01DX009 (ip), vehicle: Klucel (hydroxypropylcellulose) (HPC) 103 % of control | dose: 200.0 mg/kg/injection, schedule: Q01DX009 (ip), vehicle: Klucel (hydroxypropylcellulose) (HPC) 100 % of control | dose: 400.0 mg/kg/injection, schedule: Q01DX009 (ip), vehicle: Klucel (hydroxypropylcellulose) (HPC) 96 % of control

O=C(COc1cc2ccccc2cc1C(=O)O)NCc1ccc(Cl)cc1
inactive: dose: 25.0 mg/kg/injection, schedule: Q04DX003 (ip), vehicle: saline 96 % of control | dose: 50.0 mg/kg/injection, schedule: Q04DX003 (ip), vehicle: saline 100 % of control | [1] 101 % of control | [2] 101 % of control

CC(=O)N(NC(=O)c1ccccn1)C(C)=O
inactive: dose: 100.0 mg/kg/injection, schedule: Q01DX001 (ip), vehicle: water 97 % of control | dose: 200.0 mg/kg/injection, schedule: Q01DX001 (ip), vehicle: water 106 % of control

O=C(O)C1CCC(SSC2CCC(C(=O)O)CC2[N+](=O)[O-])C([N+](=O)[O-])C1 (configuration not stated)
inactive: [6] 95 % of control | [7] 103 % of control | [8] 103 % of control

CCN(CC)CC(O)COc1ccccc1C (configuration not stated)
inactive: dose: 5.0 mg/kg/injection, schedule: Q01DX001 (ip), vehicle: saline 101 % of control | dose: 10.0 mg/kg/injection, schedule: Q01DX001 (ip), vehicle: saline 101 % of control | dose: 20.0 mg/kg/injection, schedule: Q01DX001 (ip), vehicle: saline 104 % of control | dose: 40.0 mg/kg/injection, schedule: Q01DX001 (ip), vehicle: saline 104 % of control | dose: 80.0 mg/kg/injection, schedule: Q01DX001 (ip), vehicle: saline 101 % of control | [5] 102 % of control
